Source: US20170128428A1 (priority 2014, published 2017)

What was measured:
[1] = tested on: oxaliplatin-induced neuropathy; conditions: chronic oxaliplatin, study D0 to D28; group O; FIG. 3
Description: (§1) The animals in the control group received an injection of 5% glucose by the same route, at the same frequency and the same volume.
(§2) These tablets were reduced to a fine powder, and placed in suspension in water containing 0.5% carboxymethylcellulose (Sigma Aldrich, France) in order to obtain a solution at 4 mg/ml. […] The animals in the control group simply received an administration of 0.5% carboxymethylcellulose by the same route, at the same volume and the same frequency.
The Von Frey electronic apparatus (Chaplan et al., 1994) includes a portable sleeve made up of an elastic tip connected to a force sensor. The rats are placed in Plexiglas boxes, arranged on a raised grate. After a habituation period of the rats, the tip is applied perpendicularly to the center of the 5 plantar pads of each of rear paw. […] The intensity of the stimulus, the maximum applied pressure (expressed in grams) is recorded by the device upon withdrawal of the paw.
(§3) The trials were conducted over a period of 3 hours, on all 4 groups of rats. The time t0 corresponds to the moment of the injection.

[2] = tested on: oxaliplatin-induced neuropathy; conditions: chronic oxaliplatin, study D0 to D28; group O; FIG. 4
Description: as §1, §2
The rats' tails are submerged in a cold water bath (10° C.). The immersion is maintained until the animal withdraws its tail. The latency of the withdrawal is clocked. Each measurement is done in triplicate.
as §3

[3] = tested on: oxaliplatin-induced neuropathy; conditions: chronic oxaliplatin, day 31; group O; FIG. 5
Description: as §1, §2
This test takes place in an arena equipped with a camera in which two animals are placed in one another's presence for 10 minutes. The purpose of this test is to measure the interaction time between the animals. The two studied animals are always part of the same experimental condition group to prevent the behavior of one rat from influencing the other. The rats interact with one another by sniffing, grooming, chasing, etc. An increase in interactions indicates a non-anxious state of the rat, while a decrease and tendency toward prostration indicates an anxious state of the animal. At the beginning of the experiment, the animals are placed in opposite corners of the arena and the handler leaves the room. The arena is cleaned between two experiments to prevent the odors from the previous rats from disrupting the results.
A dose of 5 mg/kg was administered to the animals in groups D and O-D 30 minutes before the test.

[4] = Park et al. 2011; treatment using oxaliplatin and/or cisplatin; cited from earlier work
[5] = tested on: chemically induced neuropathic pain; conditions: Kautio et al. 2008; Mitchell et al. 2006; cited from earlier work

Structure (SMILES) | sensitivity to mechanical stimulation compared to Sham group [1] | sensitivity to cold stimulation compared to Sham group [2] | anxiety level (social interaction time) vs Sham group [3] | affected patients in whom the neuropathy becomes persistent [4] | relief in patients treated with oxaliplatin [5]
O=C1[O][Pt-2]2([NH2+]C3CCCC[C@H]3[NH2+]2)[O]C1=O (stereo in doubt) [oxaliplatin, cis-[(1R, 2R)-1,2-cyclohexanediamine-N, N′] [oxaloto (2)-O, O′] platinum] | increased sensitivity to mechanical stimulation | increased sensitivity | significantly more anxious than the animals in the Sham group | approximately 80% | 
CN(C)CCC=C1c2ccccc2CCc2ccccc21 [amitriptyline] |  |  |  |  | have not provided any relief
NCC1(CC(=O)O)CCCCC1 [gabapentin] |  |  |  |  | have not provided any relief
